Laboratory results reported in article PMC9719519, “Non-classical ferroptosis inhibition by a small molecule targeting PHB2” (Nature Communications, 2022).

Experiments:
Experiment in all cases: biochemical
Set-up in all cases: Eurofins recombinant human kinase profiling, remaining kinase activity as % of control, 10 uM ATP
Details in all cases: ATP 10 uM; read-out: %Ctrl@10 μM
[1] = target: T1, AMPKα1(h) (Homo sapiens, UniProt Q13131)
T1 construct: gene PRKAA1
Summary of the method: (§1)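 Activity measured in a commercial panel of 401 recombinant human protein kinases run as a kinase profiling service.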

[2] = target: T2, Abl (M351T)(h) (Homo sapiens, UniProt P00519, M351T)
T2 construct: gene ABL1
Summary of the method: as §1

[3] = target: T3, Abl(T315I)(h) (Homo sapiens, UniProt P00519, T315I)
T3 construct: gene ABL1
Summary of the method: as §1

[4] = target: T4, BRK(h) (Homo sapiens, UniProt Q13882)
T4 construct: gene PTK6
T4 sequence (Q13882 whole entry): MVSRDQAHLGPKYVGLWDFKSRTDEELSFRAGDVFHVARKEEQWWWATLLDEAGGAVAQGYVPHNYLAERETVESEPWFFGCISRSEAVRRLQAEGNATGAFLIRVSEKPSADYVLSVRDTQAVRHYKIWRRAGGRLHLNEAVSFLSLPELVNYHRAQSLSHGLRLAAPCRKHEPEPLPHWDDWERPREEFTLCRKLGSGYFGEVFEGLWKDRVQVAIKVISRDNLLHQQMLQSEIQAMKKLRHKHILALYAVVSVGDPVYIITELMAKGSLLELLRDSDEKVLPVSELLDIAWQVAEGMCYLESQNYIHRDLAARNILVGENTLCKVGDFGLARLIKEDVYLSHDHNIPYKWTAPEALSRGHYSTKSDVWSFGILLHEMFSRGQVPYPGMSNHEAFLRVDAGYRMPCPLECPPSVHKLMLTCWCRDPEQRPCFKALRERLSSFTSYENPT
Summary of the method: as §1

[5] = target: T5, Fms(Y969C)(h) (Homo sapiens, UniProt P07333, Y969C)
T5 construct: gene CSF1R
Summary of the method: as §1

[6] = target: Hck(h) (Homo sapiens, UniProt P08631)
Summary of the method: as §1

[7] = target: Hck(h) activated (Homo sapiens, UniProt P08631)
Summary of the method: as §1

[8] = target: T6, ICK(h) (Homo sapiens, UniProt Q9UPZ9)
T6 construct: gene CILK1
Summary of the method: as §1

[9] = target: T7, MEK2(h) (Homo sapiens, UniProt P36507)
T7 construct: gene MAP2K2
T7 sequence (P36507 whole entry): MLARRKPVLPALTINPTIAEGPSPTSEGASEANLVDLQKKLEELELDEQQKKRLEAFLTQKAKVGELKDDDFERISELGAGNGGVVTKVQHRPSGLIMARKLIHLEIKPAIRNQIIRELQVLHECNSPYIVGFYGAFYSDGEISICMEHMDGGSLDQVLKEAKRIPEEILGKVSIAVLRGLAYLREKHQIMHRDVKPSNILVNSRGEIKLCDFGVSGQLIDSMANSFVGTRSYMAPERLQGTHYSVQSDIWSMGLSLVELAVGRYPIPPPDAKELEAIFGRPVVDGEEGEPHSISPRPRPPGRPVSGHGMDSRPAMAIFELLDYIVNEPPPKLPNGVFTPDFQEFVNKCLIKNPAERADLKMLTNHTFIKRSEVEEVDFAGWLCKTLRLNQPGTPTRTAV
Summary of the method: as §1

[10] = target: PAK2(h) (Homo sapiens, UniProt Q13177)
Sequence of PAK2(h) (Q13177 whole entry): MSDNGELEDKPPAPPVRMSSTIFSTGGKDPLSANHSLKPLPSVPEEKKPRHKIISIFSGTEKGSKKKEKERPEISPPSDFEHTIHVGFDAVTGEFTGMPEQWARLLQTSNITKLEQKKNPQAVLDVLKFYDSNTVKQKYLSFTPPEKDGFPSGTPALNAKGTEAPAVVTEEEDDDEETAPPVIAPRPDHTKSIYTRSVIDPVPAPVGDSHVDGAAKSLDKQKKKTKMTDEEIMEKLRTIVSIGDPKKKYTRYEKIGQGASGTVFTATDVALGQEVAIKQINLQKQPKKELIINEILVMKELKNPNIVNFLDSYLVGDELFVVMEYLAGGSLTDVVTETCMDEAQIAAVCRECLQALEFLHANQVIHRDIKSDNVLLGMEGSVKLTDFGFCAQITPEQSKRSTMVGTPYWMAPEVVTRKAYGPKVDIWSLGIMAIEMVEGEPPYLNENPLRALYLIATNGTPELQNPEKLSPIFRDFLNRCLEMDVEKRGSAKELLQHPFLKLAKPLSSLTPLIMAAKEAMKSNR
Summary of the method: as §1

[11] = target: PAK5(h) (Homo sapiens, UniProt Q9P286)
Sequence of PAK5(h) (Q9P286 whole entry): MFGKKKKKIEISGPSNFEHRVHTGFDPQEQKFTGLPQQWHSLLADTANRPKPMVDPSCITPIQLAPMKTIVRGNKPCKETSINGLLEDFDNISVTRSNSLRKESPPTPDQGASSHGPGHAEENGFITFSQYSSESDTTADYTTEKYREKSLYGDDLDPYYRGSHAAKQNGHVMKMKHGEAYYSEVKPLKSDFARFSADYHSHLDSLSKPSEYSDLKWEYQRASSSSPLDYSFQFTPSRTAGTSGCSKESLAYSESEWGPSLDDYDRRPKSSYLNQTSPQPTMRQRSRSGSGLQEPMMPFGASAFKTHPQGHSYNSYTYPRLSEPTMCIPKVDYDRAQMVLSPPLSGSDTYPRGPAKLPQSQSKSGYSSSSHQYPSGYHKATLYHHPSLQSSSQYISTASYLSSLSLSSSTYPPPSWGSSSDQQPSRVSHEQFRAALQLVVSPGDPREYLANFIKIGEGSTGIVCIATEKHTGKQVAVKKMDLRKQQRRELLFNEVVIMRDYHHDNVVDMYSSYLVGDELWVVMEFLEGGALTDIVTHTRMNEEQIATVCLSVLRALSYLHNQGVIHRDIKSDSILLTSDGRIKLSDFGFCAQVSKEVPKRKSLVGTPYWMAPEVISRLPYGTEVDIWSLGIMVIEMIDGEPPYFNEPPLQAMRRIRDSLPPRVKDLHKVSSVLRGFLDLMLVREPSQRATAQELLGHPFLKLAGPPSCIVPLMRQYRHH
Summary of the method: as §1

[12] = target: T8, PDHK4(h) (Homo sapiens, UniProt Q16654)
T8 construct: gene PDK4
T8 sequence (Q16654 whole entry): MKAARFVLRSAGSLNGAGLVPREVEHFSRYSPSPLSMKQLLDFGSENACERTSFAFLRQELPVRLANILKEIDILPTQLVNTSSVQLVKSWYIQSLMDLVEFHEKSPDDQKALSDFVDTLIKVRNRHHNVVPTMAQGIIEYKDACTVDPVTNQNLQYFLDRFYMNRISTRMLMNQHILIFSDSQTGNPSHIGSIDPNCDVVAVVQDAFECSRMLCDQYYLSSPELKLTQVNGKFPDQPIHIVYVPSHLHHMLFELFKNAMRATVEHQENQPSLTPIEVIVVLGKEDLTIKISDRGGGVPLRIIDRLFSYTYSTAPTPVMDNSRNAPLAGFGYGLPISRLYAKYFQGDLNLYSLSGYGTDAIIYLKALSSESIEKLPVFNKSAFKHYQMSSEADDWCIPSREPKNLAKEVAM
Summary of the method: as §1

[13] = target: T9, PKCμ(h) (Homo sapiens, UniProt Q15139)
T9 construct: gene PRKD1
T9 sequence (Q15139 whole entry): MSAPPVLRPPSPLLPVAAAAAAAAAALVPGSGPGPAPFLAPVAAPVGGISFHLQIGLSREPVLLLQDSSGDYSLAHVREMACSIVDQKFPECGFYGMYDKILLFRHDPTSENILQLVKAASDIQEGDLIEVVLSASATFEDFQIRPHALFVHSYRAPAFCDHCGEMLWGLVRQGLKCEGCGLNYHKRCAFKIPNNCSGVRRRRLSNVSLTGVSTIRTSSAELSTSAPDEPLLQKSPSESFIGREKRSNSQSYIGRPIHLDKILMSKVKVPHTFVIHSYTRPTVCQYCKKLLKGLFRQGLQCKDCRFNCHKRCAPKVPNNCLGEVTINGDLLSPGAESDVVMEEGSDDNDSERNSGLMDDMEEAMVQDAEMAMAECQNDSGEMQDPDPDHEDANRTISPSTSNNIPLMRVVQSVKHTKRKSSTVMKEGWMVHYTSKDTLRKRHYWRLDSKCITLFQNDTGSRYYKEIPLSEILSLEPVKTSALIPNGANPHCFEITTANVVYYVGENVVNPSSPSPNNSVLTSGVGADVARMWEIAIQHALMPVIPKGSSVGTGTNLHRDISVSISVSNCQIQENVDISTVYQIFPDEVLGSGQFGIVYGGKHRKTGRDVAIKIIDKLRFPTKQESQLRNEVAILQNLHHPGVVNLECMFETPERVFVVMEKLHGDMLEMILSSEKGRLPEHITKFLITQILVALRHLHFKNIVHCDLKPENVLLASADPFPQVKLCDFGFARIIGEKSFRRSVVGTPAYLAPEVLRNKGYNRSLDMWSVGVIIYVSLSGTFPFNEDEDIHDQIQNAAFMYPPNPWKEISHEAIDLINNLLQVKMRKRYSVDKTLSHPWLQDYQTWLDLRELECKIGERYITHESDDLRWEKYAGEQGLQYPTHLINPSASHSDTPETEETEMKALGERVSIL
Summary of the method: as §1

[14] = target: PRKG2(h) (Homo sapiens, UniProt Q13237)
Summary of the method: as §1

[15] = target: RIPK2(h) (Homo sapiens, UniProt O43353)
Summary of the method: as §1

[16] = target: T10, Rsk2(h) (Homo sapiens, UniProt P51812)
T10 construct: gene RPS6KA3
T10 sequence (P51812 whole entry): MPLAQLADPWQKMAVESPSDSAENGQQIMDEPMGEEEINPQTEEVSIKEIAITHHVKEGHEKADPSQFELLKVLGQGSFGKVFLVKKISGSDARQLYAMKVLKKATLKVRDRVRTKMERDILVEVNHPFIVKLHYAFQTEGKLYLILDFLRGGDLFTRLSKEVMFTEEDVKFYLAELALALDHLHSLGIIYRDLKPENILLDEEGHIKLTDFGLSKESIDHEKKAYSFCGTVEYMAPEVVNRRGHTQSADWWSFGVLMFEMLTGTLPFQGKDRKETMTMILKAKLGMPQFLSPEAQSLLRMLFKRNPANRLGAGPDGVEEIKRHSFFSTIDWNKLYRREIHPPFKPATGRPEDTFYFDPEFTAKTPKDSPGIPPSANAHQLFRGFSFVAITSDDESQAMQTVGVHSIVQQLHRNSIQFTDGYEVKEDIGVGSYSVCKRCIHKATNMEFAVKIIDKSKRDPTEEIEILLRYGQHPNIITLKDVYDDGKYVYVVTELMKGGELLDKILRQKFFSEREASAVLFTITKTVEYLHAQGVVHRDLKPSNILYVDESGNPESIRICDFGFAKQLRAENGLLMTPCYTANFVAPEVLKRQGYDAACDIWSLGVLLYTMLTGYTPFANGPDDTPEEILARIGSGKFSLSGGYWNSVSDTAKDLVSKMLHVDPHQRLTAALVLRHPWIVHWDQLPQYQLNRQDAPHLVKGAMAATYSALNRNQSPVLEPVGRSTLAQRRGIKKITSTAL
Summary of the method: as §1

[17] = target: T11, SAPK3(h) (Homo sapiens, UniProt P53778)
T11 construct: gene MAPK12
T11 sequence (P53778 whole entry): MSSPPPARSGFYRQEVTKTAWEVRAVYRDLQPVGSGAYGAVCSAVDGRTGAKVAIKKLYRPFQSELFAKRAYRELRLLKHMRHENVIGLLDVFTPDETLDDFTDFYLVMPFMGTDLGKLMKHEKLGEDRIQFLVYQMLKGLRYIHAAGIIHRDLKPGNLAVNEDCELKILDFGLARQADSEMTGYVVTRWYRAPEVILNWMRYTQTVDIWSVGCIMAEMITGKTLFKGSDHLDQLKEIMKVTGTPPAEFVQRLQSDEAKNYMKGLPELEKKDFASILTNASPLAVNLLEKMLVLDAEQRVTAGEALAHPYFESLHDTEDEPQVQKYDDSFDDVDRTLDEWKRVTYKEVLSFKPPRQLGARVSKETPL
Summary of the method: as §1

[18] = target: T12, SGK(h) (Homo sapiens, UniProt O00141)
T12 construct: gene SGK1
T12 sequence (O00141 whole entry): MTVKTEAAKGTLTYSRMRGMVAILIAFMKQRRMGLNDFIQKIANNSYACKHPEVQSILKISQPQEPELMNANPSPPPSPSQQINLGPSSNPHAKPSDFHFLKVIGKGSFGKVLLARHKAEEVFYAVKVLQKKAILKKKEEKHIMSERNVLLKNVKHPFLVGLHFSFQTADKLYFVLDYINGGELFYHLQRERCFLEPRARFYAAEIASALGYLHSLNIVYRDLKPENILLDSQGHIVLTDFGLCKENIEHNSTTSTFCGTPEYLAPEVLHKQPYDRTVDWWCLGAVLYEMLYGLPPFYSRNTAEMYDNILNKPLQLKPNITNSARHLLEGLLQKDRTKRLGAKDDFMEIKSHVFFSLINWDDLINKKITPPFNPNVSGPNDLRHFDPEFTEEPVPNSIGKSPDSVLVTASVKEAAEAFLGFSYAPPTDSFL
Summary of the method: as §1

[19] = target: TNIK(h) (Homo sapiens, UniProt Q9UKE5)
Summary of the method: as §1

[20] = target: TYK2(h) (Homo sapiens, UniProt P29597)
Summary of the method: as §1

[21] = target: WNK1(h) (Homo sapiens, UniProt Q9H4A3)
Summary of the method: as §1

[22] = target: WNK2(h) (Homo sapiens, UniProt Q9Y3S1)
Summary of the method: as §1

[23] = target: T13, ZAP-70(h) (Homo sapiens, UniProt P43403)
T13 construct: gene ZAP70
Summary of the method: as §1

C1=C(c2nc(-c3cnn(C4CCNCC4)c3)cn3cc(-c4ccccc4)nc23)CCOC1 [YL-939]
remaining activity at 10 µM [1]: 90% | remaining activity at 10 µM [2]: 108% | remaining activity at 10 µM [3]: 119% | remaining activity at 10 µM [4]: 109% | remaining activity at 10 µM [5]: 107% | remaining activity at 10 µM [6]: 98% | remaining activity at 10 µM [7]: 105% | remaining activity at 10 µM [8]: 92% | remaining activity at 10 µM [9]: 89% | remaining activity at 10 µM [10]: 90% | remaining activity at 10 µM [11]: 95% | remaining activity at 10 µM [12]: 109% | remaining activity at 10 µM [13]: 77% | remaining activity at 10 µM [14]: 97% | remaining activity at 10 µM [15]: 71% | remaining activity at 10 µM [16]: 81% | remaining activity at 10 µM [17]: 75% | remaining activity at 10 µM [18]: 72% | remaining activity at 10 µM [19]: 56% | remaining activity at 10 µM [20]: 95% | remaining activity at 10 µM [21]: 85% | remaining activity at 10 µM [22]: 76% | remaining activity at 10 µM [23]: 97%
